“Also recorded” adds a separate entry of the source. Like-named read-outs stand apart in the source and are kept apart here.
Assays:
DA D1 receptor [1] = target: T1, DA D1 receptor (Rattus norvegicus, UniProt P18901); test: biochemical; format: binding; conditions: IC50, D1 3H-SCH
DA D2 receptors = target: T2, DA D2 receptors (Rattus norvegicus, UniProt P61169); test: Inhibition of 3H-spiperone binding to DA D2 receptors in rat striatal membranes; conditions: IC50, D2 3H-Spi
T2 construct: DA D2 receptors in rat striatal membranes; from tissue; host or cells: rat striatal membranes
T2 sequence (P61169 whole entry): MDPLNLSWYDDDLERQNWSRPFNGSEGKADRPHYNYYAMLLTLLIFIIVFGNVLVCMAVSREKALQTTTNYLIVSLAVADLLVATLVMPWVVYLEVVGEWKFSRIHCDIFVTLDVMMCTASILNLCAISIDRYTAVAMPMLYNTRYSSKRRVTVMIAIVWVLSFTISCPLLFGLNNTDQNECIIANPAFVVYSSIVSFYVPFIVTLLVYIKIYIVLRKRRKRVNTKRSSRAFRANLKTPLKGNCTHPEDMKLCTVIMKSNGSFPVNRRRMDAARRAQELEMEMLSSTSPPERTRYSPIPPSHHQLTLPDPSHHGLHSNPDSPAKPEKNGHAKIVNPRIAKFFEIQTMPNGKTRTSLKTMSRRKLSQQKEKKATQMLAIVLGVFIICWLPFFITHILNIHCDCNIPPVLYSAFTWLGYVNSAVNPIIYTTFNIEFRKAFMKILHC

5-HT2 receptors = target: T3, 5-HT2 receptors (Rattus norvegicus, UniProt P14842); test: Inhibition of 3H-ketanserin binding to 5-HT2 receptors in membranes from rat cortex; conditions: Receptor Binding, IC50, 5-HT2 3H-Ket
T3 construct: 5-HT2 receptors in membranes from rat cortex; from tissue; host or cells: membranes from rat cortex
T3 sequence (P14842 whole entry): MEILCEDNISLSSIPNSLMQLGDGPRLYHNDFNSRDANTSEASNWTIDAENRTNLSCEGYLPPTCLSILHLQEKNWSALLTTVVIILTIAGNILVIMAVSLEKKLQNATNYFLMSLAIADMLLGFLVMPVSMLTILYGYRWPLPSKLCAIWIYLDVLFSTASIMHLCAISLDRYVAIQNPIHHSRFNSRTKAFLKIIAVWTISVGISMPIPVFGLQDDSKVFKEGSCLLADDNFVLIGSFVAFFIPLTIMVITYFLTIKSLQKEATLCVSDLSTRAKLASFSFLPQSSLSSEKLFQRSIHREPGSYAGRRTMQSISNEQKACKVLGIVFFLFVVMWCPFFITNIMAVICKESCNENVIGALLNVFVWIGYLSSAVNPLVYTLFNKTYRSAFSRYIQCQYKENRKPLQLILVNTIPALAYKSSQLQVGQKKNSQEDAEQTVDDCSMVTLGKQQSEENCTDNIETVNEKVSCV
Experimental: Receptor binding studies.
5-HT2 receptors. Inhibition of ^3 H-ketanserin binding to 5-HT2 receptors in membranes from rat cortex was determined as described by Hyttel, J. Acta. Pharmacol. Toxicol.

DA uptake [2] = test: Inhibition of DA uptake in vitro; format: biochemical
Experimental: Inhibition of DA Uptake in Vitro was determined as described by K. P. B.o slashed.ges.o slashed., J. Med. Chem. 1983, 26, 935-947.

[3] = Cataleptogenic effect in rats; conditions: rat, in vivo, maximum effect 1-6 h after administration, read-out: ED50 in the catalepsy test
Experimental: Cataleptogenic effect in rats.
Catalepsy was measured every hour 1-6 h after test drug administration on a vertical wire grid and defined as being present after at least 15-simmobility. The maximum effect between 1-6 h after administration was reported. A total of 8-12 animals were used per dose.

DA D1 receptor [4] = target: T1, DA D1 receptor; test: Antagonism of SK&F 38393-induced circling behavior in rats with unilateral 6-OHDA lesions; format: in vivo; design: circling behavior in rats with unilateral 6-OHDA lesions; from tissue; host or cells: living rats with unilateral 6-OHDA lesions; conditions: 2 h
Experimental: Antagonism of SK&F 38393-induced circling behavior in rats with unilateral 6-OHDA lesions.
This test is a test for the DA D1 receptor antagonistic effect in vivo.
The experiments were performed as described by Arnt, J. and Hyttel, J. J. Neural. Transm. 1986, 67, 225-240. The experiments were done 2-9 months after lesioning when stable contralateral circling response to 2,3,4,5-tetrahydro-7,8-dihydroxy-1-phenyl-1H-3-benzazepine, hydrochloride (SK&F 38393) (4.3 μmol/kg=1.4 mg/kg) were obtained. The test compounds were injected 2 h before administration of SK&F 38393. Antagonistic effect were calculated as percent inhibition of control responses for each rat. Four to eight animals were used per dose.

DA D1 receptor [5] = conditions: 3H-piflutixol; D2 by 3H-spiperone; Drug. Dev. Res. 1986, 7, 35-47; cited from earlier work
D1 = conditions: 3H-SCH 23390; Drug. Dev. Res. 1988, 15, 389-404; cited from earlier work
DA uptake [6] = conditions: cited from earlier work
[7] = cited from earlier work; for extrapyramidal side effects (in words): at higher D2 occupancies needed to control psychosis
[8] = Psychopharmacology 1985, 86, 303-305; cited from earlier work
5-HT2 = conditions: cited from earlier work
[9] = rat striatal membranes, 3H-SCH 23390, read-out: Receptor Binding
[10] = rat striatal membranes, 3H-spiperone, read-out: Receptor Binding

T1 sequence (P18901 whole entry): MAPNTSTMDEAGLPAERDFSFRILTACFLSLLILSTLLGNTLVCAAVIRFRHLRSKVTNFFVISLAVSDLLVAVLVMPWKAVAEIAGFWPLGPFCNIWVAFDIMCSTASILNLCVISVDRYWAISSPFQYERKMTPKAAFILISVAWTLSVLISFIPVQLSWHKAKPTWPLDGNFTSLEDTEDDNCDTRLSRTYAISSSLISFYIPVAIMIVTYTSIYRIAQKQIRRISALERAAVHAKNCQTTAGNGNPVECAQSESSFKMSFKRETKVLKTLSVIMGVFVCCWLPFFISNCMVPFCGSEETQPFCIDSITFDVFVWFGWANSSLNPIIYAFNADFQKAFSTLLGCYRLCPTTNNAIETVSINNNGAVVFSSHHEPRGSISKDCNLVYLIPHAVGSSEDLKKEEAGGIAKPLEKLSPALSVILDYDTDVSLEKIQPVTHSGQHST

Compound | IC50 (DA D1 receptor [1]; [9]) | IC50 (5-HT2 receptors) | IC50 (DA D1 receptor [1]; Receptor Binding) | IC50 (DA D2 receptors; [10]) | also measured
CN1CCN([C@@H]2C[C@@H](c3ccccc3)c3ccc(Cl)cc32)CC1(C)C (racemic) [Compound 10, (±)-Trans-4-[6-chloro-3-phenyl-2,3-dihydro-1H-inden-1-yl]-1,2,2-trimethylpiperazine] | 1.6 nM | 3.2 nM |  |  | IC50 (DA D2 receptors; Receptor Binding): 20 nM; IC50 (DA uptake [2]): 15 nM
CN1CCN([C@@H]2C[C@@H](c3ccccc3F)c3ccc(Cl)cc32)CC1(C)C (racemic) [Compound 11, (±)-Trans-4-[6-chloro-3-(2-fluorophenyl)-2,3-dihydro-1H-inden-1-yl]-1,2,2-trimethylpiperazine] |  | 21 nM | 4.4 nM | 36 nM | 
CN1CCN([C@@H]2C[C@@H](c3cccc(F)c3)c3ccc(Cl)cc32)CC1(C)C (racemic) [Compound 12, (±)-Trans-4-[6-chloro-3-(3-fluorophenyl)-2,3-dihydro-1H-inden-1-yl]-1,2,2-trimethylpiperazine] |  | 26 nM | 9.6 nM | 280 nM | 
CC1(C)CN([C@@H]2C[C@@H](c3ccsc3)c3ccc(Cl)cc32)CCN1 (racemic) [Compound 13, (±)-Trans-4-[6-chloro-3-(3-thienyl)-2,3-dihydro-1H-inden-1-yl]-2,2-dimethylpiperazine] |  | 1 nM | 1.4 nM | 8.2 nM | 
CN1CCN([C@@H]2C[C@@H](c3ccsc3)c3ccc(Cl)cc32)CC1(C)C (racemic) [Compound 14, (±)-Trans-4-[6-chloro-3-(3-thienyl)-2,3-dihydro-1H-inden-1-yl]-1,2,2-trimethylpiperazine] |  | 1.7 nM | 0.76 nM | 6.1 nM | 
CN1CCN([C@@H]2C[C@@H](c3ccc(F)cc3)c3cc(Cl)ccc32)CC1(C)C (racemic) [Compound 16, (±)-Trans-4-[5-chloro-3-(4-fluorophenyl)-2,3-dihydro-1H-inden-1-yl]-1,2,2-trimethylpiperazine] |  | 9.3 nM | 37 nM | 340 nM | 
CN1CCN([C@@H]2C[C@@H](c3ccc(F)cc3)c3cccc(Cl)c32)CC1(C)C (racemic) [Compound 17, (±)-Trans-4-[7-chloro-3-(4-fluorophenyl)-2,3-dihydro-1H-inden-1-yl]-1,2,2-trimethylpiperazine] |  | 31 nM | 32 nM | 1200 nM | 
CCC1(CC)CN([C@@H]2C[C@@H](c3ccc(F)cc3)c3ccc(Cl)cc32)CCN1 (racemic) [Compound 23, (±)-Trans-4-[6-chloro-3-(4-fluorophenyl)-2,3-dihydro-1H-inden-1-yl]-2,2-diethylpiperazine] | 4.7 nM | 11 nM |  | 36 nM | 
Fc1ccc([C@@H]2C[C@@H](N3CCNC4(CCCCC4)C3)c3cc(Cl)ccc32)cc1 (racemic) [Compound 31, (±)-Trans-4-[6-chloro-3-(4-fluorophenyl)-2,3-dihydro-1H-inden-1-yl]-1,4-diazaspiro[5.5]undecan] | 6.4 nM | 25 nM |  | 75 nM | 
CN1CCN([C@@H]2C[C@@H](c3ccc(F)cc3)c3cccc(F)c32)CC1(C)C (racemic) [Compound 36, (±)-Trans-4-[7-fluoro-3-(4-fluorophenyl)-2,3-dihydro-1H-inden-1-yl]-1,2,2-trimethyl piperazine] |  | 9.8 nM | 3.8 nM | 74 nM | 
CN1CCN([C@@H]2C[C@@H](c3ccc(F)cc3)c3ccc(F)cc32)CC1(C)C (racemic) [Compound 38, (±)-Trans-4-[6-fluoro-3-(4-fluorophenyl)-2,3-dihydro-1H-inden-1-yl]-1,2,2-trimethyl piperazine] |  | 3.6 nM | 0.88 nM | 11 nM | IC50 (DA uptake [2]): 9 nM; ED50 [3]: > 68 µmol/kg; ED50 (DA D1 receptor [4]): 0.5 µmol/kg
CC1(C)CN([C@@H]2C[C@@H](c3ccc(F)cc3)c3ccc(Cl)cc32)CCN1CCCO (racemic) [Compound 39, (±)-Trans-4-[6-chloro-3-(4-fluorophenyl)-2,3-dihydro-1H-inden-1-yl]-2,2-dimethyl-1-piperazinepropanol] | 1.8 nM | 3 nM |  | 9.8 nM | 
OCCN1CCN([C@@H]2C[C@@H](c3ccc(F)cc3)c3ccc(C(F)(F)F)cc32)CC1 (racemic) [Tefludazine] |  |  |  |  | DA D1 receptor affinity (in words) (DA D1 receptor [5]): substantially lower than the D2 affinity
CC(C)C1CN([C@@H]2C[C@@H](c3ccc(F)cc3)c3ccc(Cl)cc32)CCN1 (relative stereo) [Compound 19, Trans-4-[6-chloro-3-(4-fluorophenyl)-2,3-dihydro-1H-inden-1-yl]-2-(2-propyl)piperazine] | 2.2 nM | 5.6 nM |  | 38 nM | 
CC(C)C1CN([C@@H]2C[C@@H](c3ccc(F)cc3)c3ccc(Cl)cc32)CCN1 (relative stereo) [Compound 20, Trans-4-[6-chloro-3-(4-fluorophenyl)-2,3-dihydro-1H-inden-1-yl]-2-(2-propyl)piperazine] | 6 nM | 8.8 nM |  | 130 nM | 
CN1CCN([C@@H]2C[C@@H](c3ccc(F)cc3)c3ccc(Cl)cc32)CC1(C)C (single isomer, unassigned) [+2, (+) Trans-4-[6-chloro-3-(4-fluorophenyl)-2,3-dihydro-1H-inden-1-yl]-1,2,2-trimethylpiperazine] |  | 2000 nM |  |  | IC50 (DA uptake [2]): 16 nM
Fc1ccc(C2CC(N3CCN4CCCCC4C3)c3cc(F)ccc32)cc1 (stereo not shown) [Compound 33, 2-[6-fluoro-3-(4-fluorophenyl)-2,3-dihydro-1H-inden-1-yl]-octahydropyrido[1,2-a]-pyrazine] | 5.8 nM | 28 nM |  | 320 nM | 
O=C1NCCN1CCN1CCN([C@@H]2C[C@@H](c3ccc(F)cc3)c3ccccc32)CC1 [Irindalone, reference compound] |  |  |  |  | IC50 (DA D1 receptor [1]; read-out: Receptor Binding): 890 nM; D1 affinity (in words) (D1): even lower than the D2 affinity
COC(=O)[C@H]1[C@@H](OC(=O)c2ccccc2)C[C@@H]2CC[C@H]1N2C [cocaine] |  |  |  |  | DA uptake inhibition (in words) (DA uptake [6]): inhibitor of DA uptake
O=C(CCCN1CCC(O)(c2ccc(Cl)cc2)CC1)c1ccc(F)cc1 [haloperidol] |  |  |  |  | extrapyramidal side effects (in words) [7]: accompanied by extrapyramidal side effects
OCCN1CCN(CCCN2c3ccccc3Sc3ccc(Cl)cc32)CC1 [perphenazine] |  |  |  |  | extrapyramidal side effects (in words) [7]: accompanied by extrapyramidal side effects
Cc1nc2sccn2c(=O)c1CCN1CCC(=C(c2ccc(F)cc2)c2ccc(F)cc2)CC1 [ritanserin] |  |  |  |  | clinical effect (in words) ([7]; patients): shown to be an antidepressant and to improve depressive symptoms of schizophrenia; also recorded: improve the quality of sleep; also recorded: found to relieve neuroleptic-induced parkinsonism; effect in animal test (in words) [8]: exert effects in an animal test reminiscent of anxiolytic activity; 5-HT2 antagonism (in words) (5-HT2): selective 5-HT2 antagonist
Cc1nc2n(c(=O)c1CCN1CCC(C(=O)c3ccc(F)cc3)CC1)CCS2 [setoperone] |  |  |  |  | 5-HT2 antagonism (in words) (5-HT2): 5-HT2 and moderate dopamine receptor antagonist
